Measured values published in patent publication US20100136573A1, “DIAGNOSING NEURODEGENERATIVE DISEASES” (priority 2007, published 2010).
Where a SMILES comes first, the peptide text is derived from it. The star is where a group is joined. Cbz = O=C(OCc1ccccc1)*; OtBu = CC(C)(C)O*; CH2F = FC*

Key:
H4 neuroglioma cells = experiment: Proteasome-induced toxicity, Western blot; type: cell-based
Protocol: H4 neuroglioma cells were grown in Opti-Mem plus 10% FBS and 1% pen-strep. Cells were plated in 6-well plates and at 90% confluency treated with 10 μM proteasome inhibitor I (PSI) (EMD Chemicals, Inc. San Diego, Calif.) or 100 μM pan-caspase inhibitor (Z-VAD-FMK) (EMD Chemicals, Inc. San Diego, Calif.) separately or in combination. Twenty-four hours after treatment, the cells were harvested for subsequent Western blot analysis in the Co-IP buffer (50 mM Tris-HCl, pH 7.4, 1 M NaCl, 1% Triton-X-100, 5 mM EDTA) plus 1% SDS, PMSF, and protease and phosphatase inhibitors.
Protein concentrations of cells lysates were measured by a standard BCA assay (Pierce, Rockford, Ill.). Then, the samples were heated in Laemmli's buffer, and equal amounts of protein were loaded into 10-well 10% or 4-20% Tris-glycine gels (Novex, San Diego, Calif.). After transfer, blots were blocked with 5% nonfat dry milk in TBST ([…]) for 1 hour, and then incubated with rabbit polyclonal TDP-43 antibody (1:500; ProteinTech Group, Inc, Chicago, Ill.), rabbit polyclonal caspase-3 antibody (1:1000; Cell Signaling, Beverly, Mass.), HSP70 (1:2000; Stressgen, Ann Arbor, Mich.), GADPH (1:5000; Biodesign International, Kennebunkport, Me.), or mouse monoclonal β-actin antibody (1:5000, Sigma, Saint Louis, Miss.) overnight at 4° C. Membranes were washed three times each for 10 minutes with TBST and then incubated with anti-mouse or anti-rabbit IgG conjugated to horseradish peroxidase (1:2000; Jackson ImmunoResearch, West Grove, Pa.) for 1 hour. Membranes were then washed three times each for 10 minutes, and protein expression was visualized by ECL treatment and exposure to film.

TDP-43 = experiment: Proteolytic processing of TDP-43 and caspase-3, Western blot of HeLa and H4 cells; type: cell-based
Protocol: For progranulin small interfering RNA (siRNA) transfections, siRNA was predesigned by QIAGEN (QIAGEN Inc, Valencia, Calif.) for GenBank Accession Number NM—001012479, and the sense sequence was 5′-r([sequence])dTdT-3′ (SEQ ID NO:5). siRNA experiments were carried out in 6-well plates. Final siRNA concentration (progranulin or a validated negative control siRNA) per well was 20 nM in Opti-Mem, with 4 μL of siLentFect transfection reagent (Bio-Rad, Hercules, Calif.) used per well. This mixture was incubated in a final volume of 500 μL for 20 minutes and then added to 40%-50% confluent HeLa and H4 cells in 6-well dishes plated the previous day for a final in-well volume of 2 mL. Seventy-two hours after transfection, cells were harvested for subsequent Western blot analysis in lysis buffer containing Co-IP buffer (50 mM Tris-HCl, pH 7.4, 1 M NaCl, 1% Triton-X-100, 5 mM EDTA) plus 1% SDS, PMSF, and both a protease and phosphatase inhibitor mixture. For caspase inhibitor treatment, the cells were transfected with progranulin siRNA for 24 hours, and then the pan-caspase inhibitor (Z-VAD-FMK) (EMD Chemicals, Inc. San Diego, Calif.) was added to cells for additional 48 hours at a final concentration of 100 μM. Cell lysates was prepared as described herein. […]
Protein concentrations of cells lysates were measured by a standard BCA assay (Pierce, Rockford, Ill.). […]

HEK293 cells = experiment: Inclusion formation and distribution of GFP-TDP-43 constructs, confocal microscopy; type: cell-based; conditions: for cellular distribution: HEK293, confocal fluorescence microscopy
Protocol: HEK293 cells, grown on glass coverslips, were transfected with 0.3 μg of expression vector (GFP, GFP-TDP-43, GFP-TDP-43-caspase-resistant, GFP-TDP-35, GFP-TDP-25, or GFP-TDP-ΔNR1) by using Lipofectamine 2000 (Invitrogen) according to the manufacturer's instructions then subjected to immunofluorescence analysis 48 hours later. To determine if the cytoplasmic inclusion were insoluble, some cells were treated with 0.2% Triton X-100 prior to fixation, in order to remove soluble protein. To determine if the formation of inclusion was aggresome-dependent, some cells were treated with 1 μM nocodazole (Sigma) for 24 hours after 6 hours of transfection. Finally, to examine if inclusions were ubiquitinated, cells were cotransfected with 0.3 μg of a TDP-43 construct and 0.5 μg HA-ubiquitin, then subjected to immunofluorescence analysis 72 hours later.
(§1) The cultured HEK293 and differentiated M17 cells were fixed with 4% paraformaldehyde in phosphate-buffered saline (PBS) at 4° C. for 15 minutes and permeabilized with PBS-0.5% Triton X-100 for 10 minutes. After blocking with 5% BSA for 1 hour at 37° C., the cells were incubated overnight at 4° C. with mouse monoclonal HA antibody (1:1000, Roche Applied Science), rabbit polyclonal activated caspase-3 antibody (1:250, Cell Signaling), rabbit polyclonal anti-pTDP-43 (which detects phosphorylated S409/S410; 1:1000, COSMO BIO CO., LTD), mouse monoclonal Flag antibody (1:1000, Sigma), rabbit polyclonal M2085 (1:1000), or rabbit polyclonal M2079 (1:1000). After washing, cells were incubated with the Alexa 568-conjugated goat anti-mouse IgG secondary antibody (1:1000, Molecular Probes) or anti-rabbit IgG secondary antibody (1:500, Molecular Probes) at 37° C. for 2 hours. Finally, Hoechst 33258 (1 μg/mL, Invitrogen) was used to stain the nuclei. Images were obtained on a Zeiss LSM 510 META confocal microscope.

HeLa or H4 cells = experiment: Immunofluorescence and confocal microscopy of TDP-43 localization; type: cell-based; conditions: 1 μM for 3 hours, in contrast to untreated cells
hnRNPA2 = target: T1, hnRNPA2 (Homo sapiens, UniProt P22626); experiment: Co-immunoprecipitation with Flag-tagged hnRNPA2; type: binding; conditions: HeLa cells, probing for GFP
T1 construct: expressed in transfected cells; host or cells: HeLa cells
Protocol: (§2) For co-immunoprecipitation studies, HeLa cells were transfected with 1 or 2 μg of each plasmid. Cells were harvested 48 hours later using Co-IP buffer (50 mM Tris-HCl, pH 7.4, 1 M NaCl, 1% Triton X-100, 5 mM EDTA) containing PMSF as well as protease and phosphatase inhibitors. The lysates were sonicated and centrifuged at 16,000 g for 20 minutes. The protein concentration of supernatants was determined by BCA assay (Thermo Scientific). Supernatant containing 500 μg of total protein was combined with Anti-Flag M2 agarose (Sigma) and incubated overnight at 4° C. with gentle shaking. The agarose was pelleted by centrifugation at 2,500 g for 5 minutes and washed with Co-IP buffer 6 times. Captured protein was eluted from the beads using loading buffer and resolved by SDS-PAGE for Western blot analysis.

Flag-TDP-43 = target: T2, Flag-TDP-43 (Homo sapiens, UniProt Q13148); experiment: Co-immunoprecipitation with Flag-TDP-43; type: binding; conditions: HeLa cells, probing for GFP
T2 construct: the exon skipping activity in cells overexpressing full-length TDP-43 was examined; expressed in transfected cells; host or cells: HeLa cells
Protocol: as §2

[1] = tested on: TDP-43 exon 9 skipping activity; experiment: CFTR mini-gene splicing assay; type: cell-based; conditions: for CFTR exon 9 exclusion (endogenous TDP-43 background): HeLa cells cotransfected with CFTR minigene, RT-PCR, compared to GFP; for exon skipping activity in cells overexpressing Flag-TDP-43: cotransfected with CFTR mini-gene and Flag-TDP-43
Protocol: The CFTR mini-gene splicing assay was conducted as described elsewhere (Pagani et al., J. Biol. Chem., 275(28):21041-21047 (2000) and Ayala et al., FEBS Lett., 580(5):1339-1344 (2006)). In brief, Hela cells were co-transfected with 1 μg of minigene construct and 1 μg of GFP-fusion protein expression vector. […] Then, 2 μg of total RNA was used to synthesize cDNA using the SuperScript III First-Strand Synthesis System (Invitrogen). For the PCR, 2 μL of cDNA was used in a 20 μL of reaction according to the manufacturer's protocol for Taq PCR Core Kit (Qiagen). The amplification conditions consisted of an initial denaturation step at 94° C. for 3 minutes, followed by 30 cycles of 94° C. for 30 seconds, 62° C. for 60 seconds, and 72° C. for 90 seconds.

[2] = tested on: differentiated M17 neuroblastoma cells; experiment: Toxicity assay (LDH release, activated caspase-3 staining); type: cell-based; conditions: for activated caspase-3 staining: confocal microscopy; for LDH levels compared to cells expressing only GFP: medium collected 72 hours after transfection
Protocol: M17 neuroblastoma cells, seeded at 2.5×10^3 cells per well in 24-well plates, were grown in Neurobasal A/B27 medium containing Glutamax (Invitrogen) and 10 μM retinoic acid (Sigma) to induce differentiation. Seven days later, cells were transfected with 0.2 μg of expression vector for 72 hours. The medium was collected, and a LDH assay (Promega) was used to measure LDH levels as an indicator of toxicity. Then, cells were fixed, and immunofluorescent staining was done using an antibody against activated caspase-3 (1:250; Cell signaling) and the nuclear marker, bisbenzimide (Hoechst 33258).
as §1

[3] = co-treated with PSI 10 μM and caspase inhibitor 100 μM, 24 hours

T1 sequence (P22626 1-341 isoform P22626-2, species assumed): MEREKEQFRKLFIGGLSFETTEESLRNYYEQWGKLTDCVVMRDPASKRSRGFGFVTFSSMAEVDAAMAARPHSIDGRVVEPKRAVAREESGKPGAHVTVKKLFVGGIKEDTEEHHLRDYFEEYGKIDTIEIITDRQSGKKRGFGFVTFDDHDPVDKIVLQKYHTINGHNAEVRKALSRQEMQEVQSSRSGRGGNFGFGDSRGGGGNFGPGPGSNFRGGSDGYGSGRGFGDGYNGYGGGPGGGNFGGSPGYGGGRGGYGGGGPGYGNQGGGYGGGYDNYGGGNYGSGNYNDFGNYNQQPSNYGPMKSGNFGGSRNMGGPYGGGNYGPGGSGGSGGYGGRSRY
T2 sequence (Q13148 whole entry): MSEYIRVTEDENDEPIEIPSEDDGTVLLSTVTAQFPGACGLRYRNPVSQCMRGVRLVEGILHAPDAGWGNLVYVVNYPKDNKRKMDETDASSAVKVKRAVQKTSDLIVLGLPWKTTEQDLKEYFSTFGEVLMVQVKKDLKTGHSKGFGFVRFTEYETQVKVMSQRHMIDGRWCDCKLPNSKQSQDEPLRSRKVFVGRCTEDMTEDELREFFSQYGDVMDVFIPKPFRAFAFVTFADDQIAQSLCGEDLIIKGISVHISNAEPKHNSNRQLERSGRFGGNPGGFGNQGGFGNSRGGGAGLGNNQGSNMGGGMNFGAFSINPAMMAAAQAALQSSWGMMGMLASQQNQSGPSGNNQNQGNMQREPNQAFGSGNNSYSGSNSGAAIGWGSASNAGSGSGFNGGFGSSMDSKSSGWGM

CC[C@H](C)[C@H](NC(=O)OCc1ccccc1)C(=O)N[C@@H](CCC(=O)OC(C)(C)C)C(=O)N[C@@H](C)C(=O)N[C@H](C=O)CC(C)C [PSI] (Cbz-IE(OtBu)AL-aldehyde)
HSP70 levels (H4 neuroglioma cells; PSI 10 μM, 24 hours): increased | cleavage of endogenous cellular TDP-43 (H4 neuroglioma cells; PSI 10 μM, 24 hours): cleaved into ˜35 and ˜25 kD fragments | cleaved (active) caspase-3 levels (H4 neuroglioma cells; PSI 10 μM, 24 hours): marked increase | full length TDP-43 band (˜43 kD) (H4 neuroglioma cells; PSI 10 μM, 24 hours): reduction

COC(=O)C[C@H](NC(=O)[C@H](C)NC(=O)[C@@H](NC(=O)OCc1ccccc1)C(C)C)C(=O)CF [Z-VAD (OMe)-FMK] (Cbz-Val-Ala-Asp(OMe)-CH2F)
caspase-3 activity (TDP-43; PGRN RNAi-treated HeLa cells plus pan-caspase inhibitor): suppresses | production of ˜35 and ˜25 kD TDP-43 fragments (TDP-43; PGRN siRNA-treated cells, inhibitor 100 μM for additional 48 hours): inhibited | HSP70 levels (H4 neuroglioma cells; PSI plus caspase inhibitor): persisted | PSI-induced caspase-3 activity (H4 neuroglioma cells; [3]): suppressed | generation of proteolytic TDP-43 fragments (H4 neuroglioma cells; [3]): inhibited

COC(=O)Nc1nc2ccc(C(=O)c3cccs3)cc2[nH]1 [nocodazole, reference compound]
effect on inclusions formed by GFP-TDP-25 and GFP-TDP-35 (HEK293 cells; 1 μM for 24 hours after 6 hours of transfection): not disrupted

CN[C@@H]1C[C@H]2O[C@@](C)([C@@H]1OC)n1c3ccccc3c3c4c(c5c6ccccc6n2c5c31)C(=O)NC4 [staurosporine]
TDP-43 cellular localization (HeLa or H4 cells): increased cytoplasmic TDP-43 staining

GFP-TDP1-175: GFP-tagged C-terminal deletion mutant lacking the glycine rich region
binding to hnRNPA2 (hnRNPA2): failed to bind | binding to Flag-TDP-43 (Flag-TDP-43): bound strongly

GFP-TDP1-257: GFP-tagged C-terminal deletion product of TDP-43
binding to Flag-TDP-43 (Flag-TDP-43): bound strongly

GFP-TDP76-414: GFP-tagged second C-terminal fragment (76-414) that retains nuclear distribution
binding to hnRNPA2 (hnRNPA2): did indeed interact | binding to Flag-TDP-43 (Flag-TDP-43): only weakly interacted | CFTR exon 9 exclusion (endogenous TDP-43 background) [1]: did not promote exon 9 exclusion | exon skipping activity in cells overexpressing Flag-TDP-43 [1]: markedly reduced

GFP-TDP-43-caspase-resistant: GFP-tagged TDP-43 with aspartic acid at positions 89 and 219 substituted to glutamic acid
cellular distribution (HEK293 cells): localized almost exclusively to the nucleus | activated caspase-3 staining [2]: did not stain | LDH levels compared to cells expressing only GFP [2]: comparably increased

GFP-TDP-43: full-length wild-type TDP-43 tagged at the amino terminal with enhanced GFP
cellular distribution (HEK293 cells): localized almost exclusively to the nucleus | binding to hnRNPA2 (hnRNPA2): interact with hnRNPA2 | binding to Flag-TDP-43 (Flag-TDP-43): bound strongly | CFTR exon 9 exclusion (endogenous TDP-43 background) [1]: marked increase in exon exclusion | exon skipping activity in cells overexpressing Flag-TDP-43 [1]: promoted exon 9 exclusion | activated caspase-3 staining [2]: did not stain | LDH levels compared to cells expressing only GFP [2]: comparably increased
